Measured values as given in PubChem BioAssay (NCI).
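Method: 48-hour compound exposure of cells in 96-well plates, five concentrations, linear interpolation of endpoints. GI50 = concentration required for 50% inhibition of growth. TGI: total growth inhibition.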

What was measured:
Assay in all cases: growth of human tumour cells (NCI), 48 h
RPMI-8226 leukemia = system: RPMI-8226 leukemia
OVCAR-4 ovarian = system: OVCAR-4 ovarian
DU-145 prostate = system: DU-145 prostate
EKVX NSCLC = system: EKVX NSCLC
PC-3 prostate = system: PC-3 prostate
MOLT-4 leukemia = system: MOLT-4 leukemia
SNB-75 CNS = system: SNB-75 CNS
MALME-3M melanoma = system: MALME-3M melanoma
HCT-116 colon = system: HCT-116 colon
BT-549 breast = system: BT-549 breast
HOP-92 NSCLC = system: HOP-92 NSCLC
SN12C renal = system: SN12C renal
COLO 205 colon = system: COLO 205 colon
NCI-H460 lung = system: NCI-H460 lung
SNB-19 CNS = system: SNB-19 CNS
UACC-257 melanoma = system: UACC-257 melanoma
HT29 colon = system: HT29 colon
CAKI-1 renal = system: CAKI-1 renal
HCT-15 colon = system: HCT-15 colon
SK-OV-3 ovarian = system: SK-OV-3 ovarian
786-0 renal = system: 786-0 renal
OVCAR-5 ovarian = system: OVCAR-5 ovarian
HS 578T breast = system: HS 578T breast
SF-268 CNS = system: SF-268 CNS
CCRF-CEM leukemia = system: CCRF-CEM leukemia
ACHN renal = system: ACHN renal
HOP-62 NSCLC = system: HOP-62 NSCLC
HCC-2998 colon = system: HCC-2998 colon
TK-10 renal = system: TK-10 renal
NCI/ADR-RES ovarian = system: NCI/ADR-RES ovarian
U251 CNS = system: U251 CNS
M14 melanoma = system: M14 melanoma
SF-295 CNS = system: SF-295 CNS
UACC-62 melanoma = system: UACC-62 melanoma
SF-539 CNS = system: SF-539 CNS
MDA-MB-231 breast = system: MDA-MB-231 breast
SK-MEL-28 melanoma = system: SK-MEL-28 melanoma
MCF7 breast = system: MCF7 breast
T-47D breast = system: T-47D breast
SR leukemia = system: SR leukemia
HL-60(TB) leukemia = system: HL-60(TB) leukemia
LOX IMVI melanoma = system: LOX IMVI melanoma
IGROV1 ovarian = system: IGROV1 ovarian
SK-MEL-5 melanoma = system: SK-MEL-5 melanoma
K-562 leukemia = system: K-562 leukemia
SK-MEL-2 melanoma = system: SK-MEL-2 melanoma
UO-31 renal = system: UO-31 renal
A549 NSCLC = system: A549 NSCLC
SW-620 colon = system: SW-620 colon
NCI-H226 lung = system: NCI-H226 lung
MDA-MB-435 = system: MDA-MB-435
NCI-H23 lung = system: NCI-H23 lung
A498 renal = system: A498 renal
NCI-H522 lung = system: NCI-H522 lung
RXF 393 renal = system: RXF 393 renal
KM12 colon = system: KM12 colon
OVCAR-3 ovarian = system: OVCAR-3 ovarian
OVCAR-8 ovarian = system: OVCAR-8 ovarian

## CCOP(=O)(OCC)OC[C@]12CCC(C)(C)C=C1[C@H]1CC[C@@H]3[C@@]4(C)CC[C@H](OP(=O)(OCC)OCC)C(C)(C)[C@@H]4CC[C@@]3(C)[C@]1(C)CC2
RPMI-8226 leukemia
  GI50: 0.547 µM
  TGI: 3.43 µM
OVCAR-4 ovarian
  GI50: 1.91 µM
  TGI: 4.01 µM
DU-145 prostate
  GI50: 1.67 µM
  TGI: 3.05 µM
EKVX NSCLC
  GI50: 1.48 µM
  TGI: 2.91 µM
PC-3 prostate
  GI50: 0.673 µM
  TGI: 2.26 µM
MOLT-4 leukemia
  GI50: 1.2 µM
  TGI: 3.66 µM
SNB-75 CNS
  GI50: 1.37 µM
  TGI: 2.69 µM
MALME-3M melanoma
  GI50: 1.54 µM
  TGI: 2.96 µM
HCT-116 colon
  GI50: 1.54 µM
  TGI: 3.09 µM
BT-549 breast
  GI50: 1.46 µM
  TGI: 2.93 µM
HOP-92 NSCLC
  GI50: 1.16 µM
  TGI: 2.53 µM
SN12C renal
  GI50: 1.35 µM
  TGI: 2.85 µM
COLO 205 colon
  GI50: 1.65 µM
  TGI: 3.23 µM
NCI-H460 lung
  GI50: 1.67 µM
  TGI: 3.21 µM
SNB-19 CNS
  GI50: 1.55 µM
  TGI: 3.04 µM
UACC-257 melanoma
  GI50: 1.56 µM
  TGI: 3.08 µM
HT29 colon
  GI50: 1.36 µM
  TGI: 2.78 µM
CAKI-1 renal
  GI50: 0.97 µM
  TGI: 2.18 µM
HCT-15 colon
  GI50: 1.43 µM
  TGI: 2.87 µM
SK-OV-3 ovarian
  GI50: 1.53 µM
  TGI: 2.96 µM
786-0 renal
  GI50: 1.6 µM
  TGI: 3.08 µM
OVCAR-5 ovarian
  GI50: 1.48 µM
  TGI: 2.86 µM
HS 578T breast
  GI50: 1.76 µM
  TGI: 4.22 µM
SF-268 CNS
  GI50: 1.55 µM
  TGI: 3.02 µM
CCRF-CEM leukemia
  GI50: 2.3 µM
  TGI: 8.87 µM
ACHN renal
  GI50: 1.63 µM
  TGI: 2.98 µM
HOP-62 NSCLC
  GI50: 1.61 µM
  TGI: 3.14 µM
HCC-2998 colon
  GI50: 1.39 µM
  TGI: 2.92 µM
TK-10 renal
  GI50: 1.58 µM
  TGI: 2.98 µM
NCI/ADR-RES ovarian
  GI50: 1.57 µM
  TGI: 3.29 µM
U251 CNS
  GI50: 1.58 µM
  TGI: 3.17 µM
M14 melanoma
  GI50: 1.66 µM
  TGI: 3.34 µM
SF-295 CNS
  GI50: 1.41 µM
  TGI: 2.77 µM
UACC-62 melanoma
  GI50: 1.11 µM
  TGI: 2.49 µM
SF-539 CNS
  GI50: 1.66 µM
  TGI: 3.12 µM
MDA-MB-231 breast
  GI50: 1.41 µM
  TGI: 3.04 µM
SK-MEL-28 melanoma
  GI50: 1.54 µM
  TGI: 2.91 µM
MCF7 breast
  GI50: 1.48 µM
  TGI: 3 µM
T-47D breast
  GI50: 1.53 µM
  TGI: 3.26 µM
SR leukemia
  GI50: 0.866 µM
  TGI: 5.56 µM
HL-60(TB) leukemia
  GI50: 0.611 µM
  TGI: 3.02 µM
LOX IMVI melanoma
  GI50: 1.3 µM
  TGI: 2.66 µM
IGROV1 ovarian
  GI50: 1.72 µM
  TGI: 3.26 µM
SK-MEL-5 melanoma
  GI50: 1.68 µM
  TGI: 3.07 µM
K-562 leukemia
  GI50: 0.388 µM
  TGI: 3.13 µM
SK-MEL-2 melanoma
  GI50: 1.67 µM
  TGI: 3.12 µM
UO-31 renal
  GI50: 1.36 µM
  TGI: 2.68 µM
A549 NSCLC
  GI50: 1.53 µM
  TGI: 3.25 µM
SW-620 colon
  GI50: 1.64 µM
  TGI: 3.14 µM
NCI-H226 lung
  GI50: 1.65 µM
  TGI: 3.6 µM
MDA-MB-435
  GI50: 1.59 µM
  TGI: 2.99 µM
NCI-H23 lung
  GI50: 1.19 µM
  TGI: 2.81 µM
A498 renal
  GI50: 1.53 µM
  TGI: 2.9 µM
NCI-H522 lung
  GI50: 1.64 µM
  TGI: 3.16 µM
RXF 393 renal
  GI50: 1.52 µM
  TGI: 3.08 µM
KM12 colon
  GI50: 1.56 µM
  TGI: 2.93 µM

## Cc1ccc2sc3c(c2c1)OC(N)=C(C#N)C3c1cccc(F)c1 (stereo not drawn)
RPMI-8226 leukemia
  GI50: 0.324 µM
  TGI: 9.77 µM
OVCAR-4 ovarian
  GI50: 1.34 µM
  TGI: 7.48 µM
DU-145 prostate
  GI50: 0.541 µM
  TGI: > 33.2 µM
EKVX NSCLC
  GI50: 0.573 µM
  TGI: 18.9 µM
PC-3 prostate
  GI50: 0.305 µM
  TGI: 14.8 µM
MOLT-4 leukemia
  GI50: 0.414 µM
  TGI: 33.6 µM
SNB-75 CNS
  GI50: 0.158 µM
  TGI: 1.36 µM
MALME-3M melanoma
  GI50: 0.0992 µM
  TGI: 11.2 µM
HCT-116 colon
  GI50: 0.102 µM
  TGI: 1.95 µM
BT-549 breast
  GI50: 0.137 µM
  TGI: 1.17 µM
HOP-92 NSCLC
  GI50: 4.32 µM
  TGI: 20.5 µM
SN12C renal
  GI50: 0.411 µM
  TGI: 6.17 µM
COLO 205 colon
  GI50: 0.276 µM
  TGI: 0.779 µM
NCI-H460 lung
  GI50: 0.0521 µM
  TGI: 1.37 µM
SNB-19 CNS
  GI50: 0.339 µM
  TGI: 13 µM
UACC-257 melanoma
  GI50: 0.162 µM
  TGI: 23.3 µM
HT29 colon
  GI50: 0.25 µM
  TGI: 0.878 µM
CAKI-1 renal
  GI50: 0.183 µM
  TGI: 11.5 µM
HCT-15 colon
  GI50: 0.0755 µM
  TGI: 6.4 µM
SK-OV-3 ovarian
  GI50: 0.324 µM
  TGI: 10.7 µM
786-0 renal
  GI50: 0.458 µM
  TGI: 6.49 µM
OVCAR-5 ovarian
  GI50: 0.37 µM
  TGI: 7.58 µM
HS 578T breast
  GI50: 0.194 µM
  TGI: 8.97 µM
SF-268 CNS
  GI50: 0.822 µM
  TGI: 24.6 µM
CCRF-CEM leukemia
  GI50: 0.312 µM
  TGI: 24.7 µM
ACHN renal
  GI50: 0.45 µM
  TGI: 10.7 µM
HOP-62 NSCLC
  GI50: 0.265 µM
  TGI: 3.97 µM
HCC-2998 colon
  GI50: 0.264 µM
  TGI: 1.41 µM
TK-10 renal
  GI50: 1.58 µM
  TGI: 13.5 µM
NCI/ADR-RES ovarian
  GI50: 0.0574 µM
  TGI: 1.76 µM
U251 CNS
  GI50: 0.151 µM
  TGI: 1.95 µM
M14 melanoma
  GI50: 0.137 µM
  TGI: 1.9 µM
SF-295 CNS
  GI50: 0.0799 µM
  TGI: 0.77 µM
UACC-62 melanoma
  GI50: 0.0535 µM
  TGI: 12.5 µM
SF-539 CNS
  GI50: 0.155 µM
  TGI: 0.547 µM
MDA-MB-231 breast
  GI50: 0.457 µM
  TGI: 3.17 µM
SK-MEL-28 melanoma
  GI50: 0.825 µM
  TGI: 20.1 µM
OVCAR-3 ovarian
  GI50: 0.134 µM
  TGI: 4.1 µM
MCF7 breast
  GI50: 0.03 µM
  TGI: 11.7 µM
T-47D breast
  GI50: 0.0351 µM
  TGI: 26.9 µM
SR leukemia
  GI50: 0.09 µM
  TGI: 30.8 µM
HL-60(TB) leukemia
  GI50: 0.235 µM
  TGI: 0.671 µM
LOX IMVI melanoma
  GI50: 0.16 µM
  TGI: 2.45 µM
IGROV1 ovarian
  GI50: 0.318 µM
  TGI: 12.7 µM
SK-MEL-5 melanoma
  GI50: 0.391 µM
  TGI: 2.35 µM
K-562 leukemia
  GI50: 0.0426 µM
  TGI: > 40.8 µM
SK-MEL-2 melanoma
  GI50: 0.308 µM
  TGI: 18.7 µM
UO-31 renal
  GI50: 0.375 µM
  TGI: 11.1 µM
A549 NSCLC
  GI50: 0.217 µM
  TGI: 11.6 µM
SW-620 colon
  GI50: 0.111 µM
  TGI: 13.4 µM
NCI-H226 lung
  GI50: 0.282 µM
  TGI: 2.81 µM
MDA-MB-435
  GI50: 0.0241 µM
  TGI: 0.062 µM
NCI-H23 lung
  GI50: 0.205 µM
  TGI: 2.56 µM
A498 renal
  GI50: 3.35 µM
  TGI: 17.2 µM
NCI-H522 lung
  GI50: 0.0228 µM
  TGI: 0.0946 µM
RXF 393 renal
  GI50: 0.0365 µM
  TGI: 0.189 µM
KM12 colon
  GI50: 0.309 µM
  TGI: 16.9 µM
OVCAR-8 ovarian
  GI50: 0.257 µM
  TGI: 1.25 µM
